This note sets out measurements from PMC12014842, “An ^211At-labeled alpha-melanocyte stimulating hormone peptide analog for targeted alpha therapy of metastatic melanoma” (European Journal of Nuclear Medicine and Molecular Imaging, 2025).

For data set [1], the target named is T1, MC1R (B16F10 melanoma cells) (Mus musculus, UniProt Q01727).
T1 construct: endogenous in cells; host or cells: B16F10 melanoma cells (Cell Resource Center for Biomedical Research, Tohoku University)
The data set is described as follows: Receptor binding assay: competitive inhibition of [^125I]I-Tyr^2-NDP-MSH bound to B16F10 melanoma cells. Conditions: competition with [^125I]I-Tyr^2-NDP-MSH, 37 °C, 1 h, brackets = 95% confidence interval. The protocol:
B16F10 cells were obtained from the Cell Resource Center for Biomedical Research (Institute of Development, Aging and Cancer Tohoku University). B16F10 cells were cultivated in RPMI 1640 medium (Nacalai Tesque) supplemented with 10% fetal bovine serum (Thermo Scientific) in a humidified atmosphere containing 5% carbon dioxide at 37 °C. B16F10 cells (5 × 10^5 cells/well) were seeded in a 24-well poly-D-lysine coated plate (Corning) overnight. After the growth medium was removed, a reaction buffer containing 4.8 mg/mL HEPES, 100 U/mL penicillin, 1 mg/mL streptomycin and 2 mg/mL bovine serum albumin was added. Approximately 30,000 counts per minute of [^125I]I-Tyr^2-NDP-MSH and 0.5 pM to 5 µM of the peptides (NpG-GGN1a–NpG-GGN4a and In-DOTA-GGNle-CycMSHhex) were added to each well. The reaction mixture was incubated at 37 °C for 1 h. After incubation, the binding medium was removed, and the cells were rinsed twice with ice-cold phosphate-buffered saline (PBS). The cells were harvested using 0.25% trypsin solution, and the radioactivity was determined using an auto-well gamma counter. Ki values were calculated using GraphPad Prism 8.4.3 (GraphPad Software).

A short description of data set [2]: Log D7.4 measurements (1-octanol / phosphate buffer). The data set is classed as physicochemical. Conditions: 1-octanol / 25 mM phosphate buffer pH 7.4; mean ± SD. Here is the method: This experiment was performed according to a previously reported procedure with slight modifications. In brief, an aliquot of radiolabeled GGNle-CycMSHhex analogs (50 kBq/5 µL) was mixed with equal amounts (1.5 mL) of 1-octanol and 25 mM phosphate buffer (pH 7.4). The mixture was vortexed for 1 min and then allowed to stand for 1 min. After repeating the procedure five times, the mixture was centrifuged at 1,500 g for 10 min. Aliquots of 0.5 mL were taken from each phase and their radioactivity was measured with an auto-well γ counter (Wizard 3, PerkinElmer). The partition coefficient was determined by calculating the ratio of counts per minute in the 1-octanol phase to that in the buffer phase and expressed as a common logarithm. The results represent the mean ± SD for each compound.

A short description of data set [3]: Biodistribution in tumor-bearing mice. The format is in vivo. To be noted: C57BL/6, mouse, iv, total radioactivity, 3 h after i.v. injection, Suppl. Table 1, mean ± SD, n = 4; for tissue uptake dose at 3 h: 7.4 kBq. The protocol: The animal experiments were conducted according to a protocol reviewed and approved by the Chiba University Animal Care Committee (Permit No. 4–183). Five-week-old C57BL/6 mice were subcutaneously xenografted in their right hind legs by injecting B16F10 cells (1.0 × 10^6 cells) suspended in Matrigel (BD Biosciences). When the tumor diameter achieved approximately 10 mm, the mice were subjected to biodistribution studies. Groups of four mice were sacrificed at each postinjection time point. A solution of each radiohalogenated GGNle-CycMSHhex analog or [^111In]In-DOTA-GGNle-CycMSHhex (7.4 kBq/100 µL) was injected into the tumor-bearing mice via the tail vein, and the mice were sacrificed at 3 h postinjection. A solution of [^125I]NpG-GGN4b (7.4 kBq) or [^211At]NpG-GGN4c (40 or 100 kBq) was also injected, and the mice were sacrificed at […] postinjection. Injected radioactivity of [^211At]NpG-GGN4c was 40 kBq for 1 and 3 h postinjection groups and 100 kBq for 24 postinjection group. Blocking studies were performed by co-injection of NDP-MSH (10 µg per mouse) simultaneously with [^125I]NpG-GGN4b (7.4 kBq) or [^211At]NpG-GGN4c (40 kBq), and the mice were sacrificed at 3 h postinjection. The organs of interest were removed, weighed, and radioactivity was estimated using an auto-well gamma counter.

Like-named read-outs stand apart in the source and are kept apart here. Positions of bridges follow the written chain, without caps; N, C: chain ends. Non-standard residues stand in square brackets, D forms with d. Residues, ends and D or L forms follow the SMILES beside them. *: point of attachment. DOTA = O=C(O)CN1CCN(CC(=O)O)CCN(CC(=O)*)CCN(CC(=O)O)CC1; X1 = O=C(Cn1cc(COCC(CO)(CO)CI)nn1)*; Nle = CCCC[C@H](N)C(=O)O

T1 sequence (Q01727 whole entry): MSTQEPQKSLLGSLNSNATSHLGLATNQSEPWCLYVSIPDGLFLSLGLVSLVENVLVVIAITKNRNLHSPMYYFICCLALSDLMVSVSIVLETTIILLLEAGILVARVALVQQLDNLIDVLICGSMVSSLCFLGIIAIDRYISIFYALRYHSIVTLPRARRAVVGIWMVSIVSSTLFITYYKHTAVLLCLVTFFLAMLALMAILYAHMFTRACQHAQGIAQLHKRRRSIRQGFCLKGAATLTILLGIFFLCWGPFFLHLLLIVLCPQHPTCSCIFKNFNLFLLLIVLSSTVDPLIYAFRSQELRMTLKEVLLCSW

In data set [1], `CCCC[C@H](NC(=O)CNC(=O)CNC(=O)Cn1cc(COCC(CO)(CO)CI)nn1)C(=O)N[C@H]1CC(=O)NCCCC[C@@H](C(N)=O)NC(=O)[C@H](Cc2c[nH]c3ccccc23)NC(=O)[C@H](CCCNC(=N)N)NC(=O)[C@@H](Cc2ccccc2)NC(=O)[C@H](Cc2c[nH]cn2)NC1=O` [NpG-GGN1a] (X1-GG[Nle]DH[dF]RWK-NH2; lactam 4-9) showed an inhibition constant Ki of 2.81 nM. Turning to `CCCC[C@H](NC(=O)CNC(=O)CNC(=O)[C@@H](CCC(=O)O)NC(=O)Cn1cc(COCC(CO)(CO)CI)nn1)C(=O)N[C@H]1CC(=O)NCCCC[C@@H](C(N)=O)NC(=O)[C@H](Cc2c[nH]c3ccccc23)NC(=O)[C@H](CCCNC(=N)N)NC(=O)[C@@H](Cc2ccccc2)NC(=O)[C@H](Cc2c[nH]cn2)NC1=O` [NpG-GGN2a] (X1-[dE]GG[Nle]DH[dF]RWK-NH2; lactam 5-10), the Ki in data set [1] is 3.24 nM. Regarding `CCCC[C@H](NC(=O)CNC(=O)CNC(=O)[C@@H](CCC(=O)O)NC(=O)[C@@H](CCC(=O)O)NC(=O)Cn1cc(COCC(CO)(CO)CI)nn1)C(=O)N[C@H]1CC(=O)NCCCC[C@@H](C(N)=O)NC(=O)[C@H](Cc2c[nH]c3ccccc23)NC(=O)[C@H](CCCNC(=N)N)NC(=O)[C@@H](Cc2ccccc2)NC(=O)[C@H](Cc2c[nH]cn2)NC1=O` [NpG-GGN3a] (X1-[dE][dE]GG[Nle]DH[dF]RWK-NH2; lactam 6-11), the Ki in data set [1] is 14.9 nM.

Take `CCCC[C@H](NC(=O)CNC(=O)CNC(=O)[C@@H](CCCNC(=N)N)NC(=O)[C@@H](CCC(=O)O)NC(=O)Cn1cc(COCC(CO)(CO)CI)nn1)C(=O)N[C@H]1CC(=O)NCCCC[C@@H](C(N)=O)NC(=O)[C@H](Cc2c[nH]c3ccccc23)NC(=O)[C@H](CCCNC(=N)N)NC(=O)[C@@H](Cc2ccccc2)NC(=O)[C@H](Cc2c[nH]cn2)NC1=O` [NpG-GGN4a] (X1-[dE][dR]GG[Nle]DH[dF]RWK-NH2; lactam 6-11): the Ki in data set [1] came out at 1.37 nM. This Ki is about 11-fold lower than that of the molecule before. `CCCC[C@H](NC(=O)CNC(=O)CNC(=O)CN1CCN(CC(=O)O)CCN(CC(=O)O)CCN(CC(=O)O)CC1)C(=O)N[C@H]1CC(=O)NCCCC[C@@H](C(N)=O)NC(=O)[C@H](Cc2c[nH]c3ccccc23)NC(=O)[C@H](CCCNC(=N)N)NC(=O)[C@@H](Cc2ccccc2)NC(=O)[C@H](Cc2c[nH]cn2)NC1=O` [[^111In]In-DOTA-GGNle-CycMSHhex, metal not drawn] ({DOTA}-GG[Nle]DH[dF]RWK-NH2; lactam 4-9) yielded a log distribution coefficient (logD) in data set [2] of -3.45 ± 0.17. For the same molecule, the tissue uptake dose at 3 h in data set [3] (intestine, read-out: Biodistribution of radioactivity, Intestine) was 0.6 ± 0.15 %ID; in data set [3] (stomach, read-out: Biodistribution of radioactivity, Stomach) it was 0.2 ± 0.04 %ID; in data set [3] (thyroid, read-out: Biodistribution of radioactivity, Thyroid) it was 0.01 %ID. In data set [3] (tumor, 7.4 kBq/100 µL), the tissue uptake at 3 h came out at 16.5 ± 1.89 %ID/g.
